Reference: the supplement of paper PMC2824726
“And” between values parts separate entries of the source, which are not always exact repeats. Equal entries are not always repeated.

Test system: MDA-MB-231
Assay: shRNA barcode abundance ratio t_end/t_zero (depletion over 4 weeks of proliferation) (log2 ratio); higher = less depletion (weaker anti-proliferative effect of the shRNA)
Settings: time after t zero 28 days
Protocol: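 Pooled lentiviral negative-selection screen of 305 pGIPZ shRNAs (Open Biosystems V2LHS clones; the 21-nt half-hairpin sense stem is embedded in a mir-30 scaffold) in MDA-MB-231 breast carcinoma cells, infected at MOI 0.3 with 0.5 ug/ml puromycin selection. Barcode abundance was read on barcode tiling microarrays (six 25-nt probes per 60-nt barcode) at t_zero (5 days post-infection) and t_end (33 days; 28 days of culture after t_zero). Values are median-normalised t_end/t_zero signal ratios, averaged over the tiling probes that passed a 10-fold background filter, from three biological replicates.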

Row | Sequence | shRNA barcode abundance ratio t end/t zero (log2)
1 | CCAGAGAATTTGCTTACCAAA (targeted gene: RALBP1) | 0.116
2 | CCAGAGGCTTCCACTTAATAT (targeted gene: APAF1) | 0.0519
3 | CCAGAGTAACTCTAGTCAGTT (targeted gene: NUP62) | -2.05
4 | CCAGATAATATTAAGGGAAAT (targeted gene: ABCB1) | 0.255
5 | CCAGATTTCTTACCTACCATA (targeted gene: BIRC2) | 0.213
6 | CCAGCGATGAAGAATGTGGAA (targeted gene: CFLAR) | -0.0627
7 | CCAGCTGTTTATGCATAGATA (targeted gene: CXCR4) | 1.87
8 | CCAGGAGAACAGTTGTTAAAT (targeted gene: HIPK3) | 0.228
9 | CCAGTGACCTTCGCTCCACAT (targeted gene: BAD) | 0.391
10 | CCATAGCAAGGCCTAATGTTA (targeted gene: FANCF) | 0.00383
11 | CCATATAGTTCCTTGGGATTA (targeted gene: BCL2L2) | 0.203
12 | CCATATGTTCATTACATACAT (targeted gene: FANCF) | 0.17
13 | CCATATTTGCATTTGAAGGTA (targeted gene: BCL2A1) | 0.349
14 | CCATGTAATGGCAGTTATATT (targeted gene: HMGB1) | 0.175
15 | CCATTCTGATTCTTCAGTCAT (targeted gene: TOPORS) | 0.459
16 | CCATTGCCCATCGAGATTTAA (targeted gene: ACVR1) | 0.196
17 | CCATTTACAGCCATTTCTAAA (targeted gene: ESR1) | 0.128
18 | CCCAGCAATAATTTAAACTTA (targeted gene: WRN) | 0.168
19 | CCCGGGACTCCTGAGAACAAT (targeted gene: PRLR) | -0.387
20 | CCCGTATGTGTCAACACCTAT (targeted gene: CRTAC1) | -0.136
21 | CCCTGAGACCATATCCTTAAA (targeted gene: OPA1) | -0.115
22 | CCCTTCTTTGGGAATATAATT (targeted gene: CBX4) | 0.505

Row | Sequence | shRNA barcode abundance ratio t end/t zero (log2)
23 | CCGAACATTAGGAATTGTTTA (targeted gene: ACVR1) | 0.264
24 | CCGAATCCGCATGACTCATAA (targeted gene: HDAC1) | 1.63
25 | CCGCAAAGAATCAAGTTGCAA (targeted gene: HSPA8) | -0.446
26 | CCGCCTCTTTGACCAGTTCTT (targeted gene: CRYAB, Cryab) | 0.00542
27 | CCGTAGCCTCTGCCCTGTAAA (targeted gene: BAG3) | 0.779
28 | CCGTGCTAACTGTGTGTACAT (targeted gene: PEA15) | -1.15
29 | CCGTTATGAAAGAGAAATGAA (targeted gene: HMGB1) | -0.0571
30 | CCTACTAACAATATCTGTTAA (targeted gene: SOCS2) | 0.0566
31 | CCTAGAAGCATTTATGATTTA (targeted gene: BCL2L2) | 0.344
32 | CCTCACCCTGTACCAGTCCAA (targeted gene: GSTP1) | -0.648
33 | CCTCACCCTGTCAGGTATCAA (targeted gene: MYBL2) | -0.1
34 | CCTCACTTTCTCCAAGAAGTT (targeted gene: MAPK8IP2) | 0.0658
35 | CCTCAGATTGTTGTTGTTAAT (targeted gene: IL6) | 0.311
36 | CCTCAGTGTCTGTTGAAGTAA (targeted gene: BIRC6) | -0.238
37 | CCTCATGTCTTGATAAGTTAA (targeted gene: FOXO1) | 0.0815
38 | CCTCCCTCTCAGAACCAATAA (targeted gene: DDAH2) | -0.269
39 | CCTCCGTCCCTCCTACCATAA (targeted gene: MYBL2) | 0.0727
40 | CCTGACCTCCCTCTAATTTAT (targeted gene: IL10) | 0.309
41 | CCTGCAAACCTTATCCTCTAT (targeted gene: MAPK8IP2) | 0.442
42 | CCTGCCCATTAGAGAAGTATT (targeted gene: VHL) | -0.221
43 | CCTGGCTCCTCTACTGTTTAA (targeted gene: BIRC5) | -0.954
44 | CCTGGGCATTCTTGTTTCAAT (targeted gene: IL1A) | -0.328

Row | Sequence | shRNA barcode abundance ratio t end/t zero (log2)
45 | CCTGTCAATATTGATGACTTG (targeted gene: BRAF) | 0.319
46 | CCTGTTATCAATCTGCTAAAT (targeted gene: FOXO1) | 0.0156
47 | CCTGTTGGTGTCTTTATTATT (targeted gene: CDH1) | 0.164
48 | CCTTAAATCCTCATTGCAAAT (targeted gene: USP9X) | -0.782
49 | CCTTAGCAATGTCTTAGGAAA (targeted gene: BIRC5) | -2.27
50 | CCTTCCAGAGTTATGGAAATT (targeted gene: BCL2A1) | 0.456
51 | CCTTCGCCAGATCACTGTTAA (targeted gene: PRDX2) | 0.234
52 | CCTTGCTGTTGTGAAATCTAT (targeted gene: ANXA5) | -0.252
53 | CCTTGGAAAGGATGAACAAAT (targeted gene: TOPORS) | 0.154
54 | CCTTTCTCCAAACCCTCTTAA (targeted gene: BIRC2) | 0.28
55 | CCTTTGAAAGTGGGTGGAATT (targeted gene: TNFAIP3) | 0.0769
56 | CCTTTGAACTTGATTGCCTAT (targeted gene: SFRP1) | -0.127
57 | CGAACTCCTCTTCTCAGTTAA (targeted gene: IGF1R) | 0.302
58 | CGACTCTATCAGGGTATAAAT (targeted gene: MSH2) | 0.0312
59 | CGACTTAGACTTGACCTATAT (targeted gene: PTEN) | -0.304
60 | CGAGACATTCGCATCAAATAT (targeted gene: NRG2) | 0.219
61 | CGAGAGAGTTTCCCTACGTAT (targeted gene: CDH1) | 0.249
62 | CGAGCCCTGGACACCAACTAT (targeted gene: TGFB1) | 0.183
63 | CGAGGCAACTTGAACTCAGAA (targeted gene: IER3) | 0.272
64 | CGAGTTTGTGGACTCCTTTAA (targeted gene: BAD) | -0.185
65 | CGCAAGAATCTGTTCCTAGTG (targeted gene: FAIM3) | -0.255
66 | CGCAGATAGGAGTAGTCTTTA (targeted gene: NFIA) | 0.432

Row | Sequence | shRNA barcode abundance ratio t end/t zero (log2)
67 | CGCCAGCACCGGAGGAAGAAA (targeted gene: CDKN2A) | -0.0357
68 | CGCCTTTCCTTAAGGAACAAA (targeted gene: NAIP) | 0.0933
69 | CGCTACTTCCTCCTCAAGAAT (targeted gene: AKT1) | 0.372
70 | CGGACCTTAGTGAATATAAAT (targeted gene: OPA1) | -0.0398
71 | CGGAGAGTTATCCTGATAAAT (targeted gene: SFRP1) | -0.114
72 | CGGATTAGGGCATTTGAGAAA (targeted gene: IL7) | 0.319
73 | CGGCTTTATGATGCTTATGAA (targeted gene: ANXA5) | 0.161
74 | CGGGTTTCTCCGGCGTCATTA (targeted gene: PIM1) | 0.0461 and 0.0898
75 | CGGTATTAAGTTGTAATTTAA (targeted gene: PROK2) | 0.137
76 | CGGTTTGCTGAGGAGAAAGAA (targeted gene: AVEN) | 0.241
77 | CGTAAGATGATGGATTTGATT (targeted gene: BIRC5) | 0.0401
78 | CGTCGTAATCACCACACTGAA (targeted gene: CDH1) | 0.11
79 | CGTGATTCTAAGAATCTCAAA (targeted gene: IL1A) | 0.666
80 | CGTTATTAACTTGTTATTTAG (targeted gene: API5) | 0.468
81 | GAACTAGATCTGTTGCTTAAT (targeted gene: AVEN) | 0.231
82 | GAGGATTATGGCTAACAAGAA (targeted gene: MCL1) | 0.27
83 | GATCCTAAGATGTGTTCTTAT (targeted gene: CYP1B1) | 0.664
84 | GATGATAGTATTGAAGCAGAT (targeted gene: BNIP2) | 0.366
85 | GCAAAGAATCTAGATGCAATA (targeted gene: IL6) | 0.508 and 0.569
86 | GCAAAGATCCTGATATCTTAT (targeted gene: RASA1) | 0.278
